# From patent publication US5516651A, “Nucleic acids encoding calcitonin receptor and uses thereof” (The General Hospital Corporation, priority 1991, dated 1996)
# Residue numbers refer to the chain shown, from its start.
# Tests used:
# [1] = molecular target: T1, porcine calcitonin receptor (CTR) (Sus scrofa, UniProt P25117); type: cell-based
# T1 construct: expressed in transfected cells; host or cells: COS cells
# T1 sequence (P25117 30-482 isoform P25117-2 K186L): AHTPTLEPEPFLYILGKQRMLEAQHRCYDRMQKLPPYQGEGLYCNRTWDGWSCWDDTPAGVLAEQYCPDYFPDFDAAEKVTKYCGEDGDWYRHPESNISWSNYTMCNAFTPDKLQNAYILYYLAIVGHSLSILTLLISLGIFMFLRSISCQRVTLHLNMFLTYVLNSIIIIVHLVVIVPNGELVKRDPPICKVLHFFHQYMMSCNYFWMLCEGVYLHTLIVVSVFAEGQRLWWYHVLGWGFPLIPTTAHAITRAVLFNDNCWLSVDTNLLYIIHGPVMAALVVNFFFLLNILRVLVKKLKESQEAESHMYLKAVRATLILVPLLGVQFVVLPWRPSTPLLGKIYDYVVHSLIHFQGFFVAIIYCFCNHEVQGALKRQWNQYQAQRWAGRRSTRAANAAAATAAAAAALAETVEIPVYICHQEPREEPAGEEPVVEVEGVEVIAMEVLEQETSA
# Procedure: (§1) The cloned porcine receptor is functionally coupled to increased intracellular cAMP (FIGS. 2A and 2B). A 4-fold increase in the concentration of intracellular cAMP was observed after incubation of porcine CTR-transfected COS cells with calcitonin, but there was no increase when cells were transfected with β-galactosidase and subsequently stimulated with calcitonin.
# BIN-67 cells or COS-M6 cells were grown in 10 cm petri dishes. Forty eight hours before the cAMP assay, the COS-M6 cells were transfected with either human CTR cDNA, or with β-galactosidase cDNA which served as a control. After 24 hours, the transfected COS-M6 cells and the BIN-67 cells were trypsinized and transferred to plastic trays containing 24 16 mm wells (Falcon) at an initial plating density of 5×10^4 cells/well. To test for hormone-induced cAMP responses, the medium was removed from each well and the cells were washed with PBS supplemented with calcium and magnesium. Triplicate groups of cells were incubated for 20 minutes at 37° C. at room temperature with either test buffer [PBS supplemented with calcium, magnesium, 0.25% bovine serum albumin, 11 mM glucose and 1 mM 3-isobutyl-methyl-xanthine (IBMX)], or with 4 mM isoproterenol or peptide hormone at the appropriate concentrations. Reactions were stopped by placing the culture plates in a water bath at 100° C. until all liquid had evaporated. […]
# [2] = test system: β-galactosidase transfected COS cells; assay: cAMP response in mock (β-galactosidase) transfected COS cells; type: cell-based; settings: for activation of adenylate cyclase / increase of cAMP levels: β-galactosidase (mock) transfected COS cells; for increase in cAMP after stimulation with calcitonin: COS cells transfected with β-galactosidase
# Procedure: as §1
# (§2) BIN-67 cells or COS-M6 cells were grown in 10 cm petri dishes. Forty eight hours before the cAMP assay, the COS-M6 cells were transfected with either human CTR cDNA, or with β-galactosidase cDNA which served as a control. After 24 hours, the transfected COS-M6 cells and the BIN-67 cells were trypsinized and transferred to plastic trays containing 24 16 mm wells (Falcon) at an initial plating density of 5×10^4 cells/well. To test for hormone-induced cAMP responses, the medium was removed from each well and the cells were washed with PBS supplemented with calcium and magnesium. Triplicate groups of cells were incubated for 20 minutes at 37° C. at room temperature with either test buffer [PBS supplemented with calcium, magnesium, 0.25% bovine serum albumin, 11 mM glucose and 1 mM 3-isobutyl-methyl-xanthine (IBMX)], or with 4 mM isoproterenol or peptide hormone at the appropriate concentrations. Reactions were stopped by placing the culture plates in a water bath at 100° C. until all liquid had evaporated. The plates were stored at -20° C. until assayed. The cAMP assay was performed by adding 1.0 ml of 50 mM sodium acetate buffer, pH 6.2, to each well. Dried cells were scraped into this buffer, transferred to glass tubes and centrifuged at 500×g for 10 minutes. Aliquots of supernatant were assayed for cAMP using a radioimmunoassay kit (New England Nuclear/Dupont cAMP [^125 I] Radioimmunoassay Kit, Dupont).
# [3] = molecular target: T2, human CTR (Homo sapiens, UniProt P30988, L447P/S166F); assay: cAMP assay in COS-M6 cells transfected with human CTR cDNA; type: cell-based
# T2 construct: expressed in transfected cells; host or cells: COS-M6 (COS-7 subclone)
# T2 sequence (P30988 25-490 isoform P30988-1 S166F/L463P): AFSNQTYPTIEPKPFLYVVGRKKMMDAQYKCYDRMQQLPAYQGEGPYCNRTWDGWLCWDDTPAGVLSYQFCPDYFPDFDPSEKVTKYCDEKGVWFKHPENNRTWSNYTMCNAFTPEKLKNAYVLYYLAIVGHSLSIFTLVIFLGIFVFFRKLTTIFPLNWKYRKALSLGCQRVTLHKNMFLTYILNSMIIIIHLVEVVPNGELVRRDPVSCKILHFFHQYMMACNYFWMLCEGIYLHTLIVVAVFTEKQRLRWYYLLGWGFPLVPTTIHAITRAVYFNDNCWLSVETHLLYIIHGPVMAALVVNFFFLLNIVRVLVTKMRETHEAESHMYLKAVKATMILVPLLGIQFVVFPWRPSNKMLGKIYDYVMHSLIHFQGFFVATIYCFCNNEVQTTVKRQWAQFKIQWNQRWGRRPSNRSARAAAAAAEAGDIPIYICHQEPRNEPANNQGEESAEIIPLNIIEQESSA
# Procedure: Plasmid DNA was used to transfect COS-M6 cells growing in 10 cm petri dishes (Falcon, Lincoln Park, N.J.) using the DEAE-dextran/chloroquine procedure (Seed and Aruffo, 1987, Proc. Natl. Acad. Sci. USA 84:3365). Forty-eight hours after transfection, cells were incubated in the presence of either iodinated calcitonin for ligand binding studies, or unlabeled calcitonin for the assay of intracellular cAMP.
# as §2
# [4] = molecular target: T3, calcitonin binding sites of BIN-67 cells (Homo sapiens, UniProt P30988); assay: Radioligand binding of salmon and human calcitonin to BIN-67 cells; settings: for displacement of radiolabeled salmon or human calcitonin binding: concentrations as high as 10^-5 M
# T3 construct: native BIN-67 cells (0.42 nM); endogenous in cells; host or cells: BIN-67 (human ovarian small cell carcinoma)
# T3 sequence (P30988 25-490 isoform P30988-1 limits assumed): T2 sequence (P30988 25-490 isoform P30988-1 S166F/L463P) with F142S, P439L
# Procedure: (§3) Human small ovarian cell carcinoma cells (BIN-67) were grown in 10 cm petri dishes in Dulbecco's modified Eagle's medium (DMEM) supplemented with 20% (vol/vol) heat inactivated fetal calf serum (GIBCO) and enriched with 25% Ham's F12 medium (GIBCO). Cells at near confluency, were passed approximately twice a week by trypsinization using 0.25% trypsin (GIBCO). Radioligand binding assays were performed in triplicate as follows. The cells were washed, trypsinized and counted in an automated cell counter (Coulter, Hialeah, Fla.). […] The mixture was incubated for 14-16 hours at 4° C. The cells were washed by layering 100 μl of cell suspension over 400 μl of 10% sucrose (wt/vol) in a mini-microfuge tube (Bio-Rad) and centrifuging at maximum speed in a microfuge for three minutes to pellet the cells. The supernatant was removed by aspiration, and the portion of the tube containing the cell pellet was cut off and assayed for radioactive content in a gamma counter (TM Analytic, Elk Grove Village, Ill.). Ligand binding to COS-M6 cells transfected with a human CTR-containing plasmid was performed using the same technique.
# [5] = molecular target: T1, porcine calcitonin receptor (CTR); assay: Radioiodinated salmon calcitonin binding to COS cells transfected with porcine CTR cDNA
# Text: (§4) Radioiodinated salmon calcitonin binds to LLC-PK1 cells and to COS cells transfected with the cloned porcine calcitonin receptor (CTR) cDNA (FIGS. 1A and 1B). […] Bovine parathyroid hormone (1-34) [PTH(1-34)]
# [6] = molecular target: T2, human CTR; assay: Radioligand binding to COS-M6 cells transfected with human CTR cDNA; settings: for competition for binding with radioiodinated salmon or human calcitonin: COS cells transfected with human CTR cDNA
# Procedure: as §3
# [7] = test system: BIN-67 cells; assay: cAMP assay in BIN-67 cells; type: cell-based, human; settings: read-out: 50% maximal effective concentration (EC50) for cAMP increase
# Procedure: as §2, with “Aliquots of supernatant were assayed for cAMP using a radioimmunoassay kit (New England Nuclear/Dupont cAMP [^125 I] Radioimmunoassay Kit, Dupont).” left out
# [8] = molecular target: T4, calcitonin receptors of LLC-PK1 cells (Sus scrofa, UniProt P25117); assay: Radioiodinated calcitonin binding to LLC-PK1 cells (Scatchard); set-up: species or system porcine; settings: FIG. 1A, read-out: apparent dissociation constant (Kd)
# T4 construct: endogenous in cells; host or cells: LLC-PK1
# T4 sequence (P25117 30-482 isoform P25117-2 limits assumed): T1 sequence (P25117 30-482 isoform P25117-2 K186L) with L157K
# Text: The porcine calcitonin receptor was cloned by expression in COS cells, using a strategy generally described in Lin et al., 1991, Proc. Natl. Acad. Sci. USA 88:3185. […] Pools of mini-prep cDNA (Sambrook et al., 1989, Molecular Cloning: A Laboratory Manual, Cold Spring Harbor Laboratory, N.Y.) containing 10^4 recombinants were transfected into COS cells and screened for binding to radioiodinated salmon calcitonin by emulsion autoradiography (Gearing et al., 1989, EMBO 8:3667). After screening 30 pools representing 3×10^5 clones, two positive pools were identified from which two positive clones with cDNA inserts 2.2 and 3.9 kb in length were isolated. The 2.2 kb clone (3JS-14-FI) was a truncated version of the 3.9 kb clone (2B5-0-I) but encoded the same open reading frame.
# as §4
# [9] = molecular target: T5, calcitonin receptors of BIN-67 cells (Homo sapiens, UniProt P30988); assay: Emulsion autoradiography of BIN-67 cells with [125I]-salmon calcitonin; type: binding
# T5 construct: native BIN-67 cells (0.42 nM); endogenous in cells; host or cells: BIN-67 (human ovarian small cell carcinoma)
# T5 sequence (P30988 25-490 isoform P30988-1 limits assumed): T2 sequence (P30988 25-490 isoform P30988-1 S166F/L463P) with F142S, P439L
# Procedure: Cells were grown on glass chamber slides (Nunc, Kamstrup, DK). The medium was removed by aspiration and the cells were incubated in binding buffer (PBS supplemented with 11 mM glucose, 0.5% bovine serum albumin) with [^125 I]-salmon calcitonin (200 pM) with or without 10^-6 M unlabeled salmon calcitonin (Sigma). After 5 washes in ice cold PBS supplemented with calcium and magnesium, the cells were fixed in PBS plus 2% formaldehyde, coated with Kodak NTB2 emulsion and exposed for 1-3 weeks at 4° C., after which they were developed and counterstained with Giemsa.
compound,measurement,setting,value
CC(C)NCC(O)c1ccc(O)c(O)c1 (stereo not drawn) [isoproterenol],activation of adenylate cyclase,[1]; porcine CTR-transfected cells,activated adenylate cyclase
same,activation of adenylate cyclase / increase of cAMP levels,[2],increased cAMP levels
same,activation of adenylate cyclase / increase of cAMP levels,[2]; listed as Isoproterenol,activated adenylate cyclase
same,cAMP response,[3]; FIG. 7C,increased cAMP levels
Bovine parathyroid hormone (1-34) [PTH],displacement of radiolabeled salmon or human calcitonin binding,[4]; BIN-67 cells,failed to displace
same,competition for binding of radioiodinated salmon calcitonin,[5]; porcine CTR transfectants,did not compete
same,competition for binding with radioiodinated salmon or human calcitonin,[6],"failure of other hormones, including PTH or secretin, to compete for binding"
same,cAMP response,[3]; FIG. 7C,failure of PTH to induce a response
human calcitonin,maximal binding,"[4]; human calcitonin binding to BIN-67 cells, FIG. 6C",1.92×10^4 cpm per sample
same,EC50,[7],~3 nM
salmon calcitonin,Kd,"[4]; BIN-67 cells, radiolabeled ligand, 4° C., read-out: Kd (Scatchard analysis)",0.42 nM
same,IC50,"[4]; read-out: apparent 50% inhibitory concentration (IC50), BIN-67 cells, [125I]human calcitonin competed with unlabeled ligand",0.6 to 0.7 nM
same,increase in concentration of intracellular cAMP,"[1]; cos cells, 20 min",4 fold
same,Kd,"[5]; COS cells transfected with porcine CTR cDNA, FIG. 1B, read-out: apparent Kd",~6 nM
same,Kd,"[6]; COS-M6 cells transfected with HCTR-BIN67, read-out: apparent Kd (Scatchard analysis)",0.44 nM
same,EC50,[7],~0.7 nM
same,increase in cAMP after stimulation with calcitonin,[2],failed to increase cAMP levels above control levels
same,increase in cAMP after stimulation with calcitonin,[2]; listed as calcitonin,no increase
same,Kd,[8],~3 nM
same,increase in cAMP levels,"[3]; maximal stimulatory concentrations, 20 minutes, IBMX, FIG. 7C",~4 fold
same,competition of [125I]-salmon calcitonin label by excess unlabeled ligand,[9],competed out all of the label
secretin,displacement of radiolabeled salmon or human calcitonin binding,[4]; BIN-67 cells,failed to displace
same,competition for binding with radioiodinated salmon or human calcitonin,[6],"failure of other hormones, including PTH or secretin, to compete for binding"
same,cAMP response,[3]; concentrations up to 10^-6 M,failed to induce a response
